What was measured:
[1] = test system: Spontaneously hypertensive rats (SHR); assay: Acute Efficacy in Spontaneously Hypertensive Rats (SHR), telemetry blood pressure; assay type: in vivo, rat; settings: SHR male
Description: Acute Efficacy in Spontaneously Hypertensive Rats (SHR)
Spontaneously hypertensive rats (SHR, male, Charles River) were implanted with DSI TA11PA-C40 telemetry device (Data Sciences, Inc., St. Paul, Minn.) under isoflurane or ketamine/metomidine anesthesia. The telemetry unit catheter was inserted into the descending aorta via the femoral artery and the telemetry device was implanted subcutaneously in the left flank area. Animals were allowed to recover from surgery for 14 days before the start of any studies. Blood pressure, heart rate, and activity signals from conscious, freely moving rats were recorded continuously for 30 seconds every 10 minutes. On the day prior to administration of compound, a single oral dose of vehicle (10% transcutol/20% Cremophor/70% water) was administered to all animals to establish baseline control data. The blood pressure lowering efficacy of compound (PO) or vehicle was evaluated following a single oral gavage. Data were collected as hourly averages, and changes in blood pressure were calculated by subtracting control baseline data on an hourly basis. Animals were maintained on normal diet with a 12 hour light-dark cycle.
Maximum peak decreases of systolic blood pressure (SBP) in SHR at a particular P.O. dose (mpk milligrams per kilogram) for the following representative compounds are provided. • Category A=SBP in SHRs<20 mmHg; Category B=SBP in SHRs 20-40 mmHg; • Category C=SBP in SHRs>40 mmHg

sGC α1/β1 heterodimer = molecular target: T1, sGC α1/β1 heterodimer (Homo sapiens, UniProt Q02108+Q02153); assay: Cell-Based sGC Functional Assay (CASA Assay), cGMP by HTRF in CHO-K1/sGC cells; settings: for Emax: CHO-K1, percent activation relative to maximum cGMP production of Compound A (= 100%), read-out: % Act.; for EC50: cGMP production, 1 hr at 37° C., 4P fit, presence or absence of 1 μM DETA-NO not given, read-out: IP (nM) (inflection point)
T1 construct: expressed in transfected cells; host or cells: CHO-K1 (clone #7, CHO-K1/sGC)
T1 sequence (Q02108 1-690): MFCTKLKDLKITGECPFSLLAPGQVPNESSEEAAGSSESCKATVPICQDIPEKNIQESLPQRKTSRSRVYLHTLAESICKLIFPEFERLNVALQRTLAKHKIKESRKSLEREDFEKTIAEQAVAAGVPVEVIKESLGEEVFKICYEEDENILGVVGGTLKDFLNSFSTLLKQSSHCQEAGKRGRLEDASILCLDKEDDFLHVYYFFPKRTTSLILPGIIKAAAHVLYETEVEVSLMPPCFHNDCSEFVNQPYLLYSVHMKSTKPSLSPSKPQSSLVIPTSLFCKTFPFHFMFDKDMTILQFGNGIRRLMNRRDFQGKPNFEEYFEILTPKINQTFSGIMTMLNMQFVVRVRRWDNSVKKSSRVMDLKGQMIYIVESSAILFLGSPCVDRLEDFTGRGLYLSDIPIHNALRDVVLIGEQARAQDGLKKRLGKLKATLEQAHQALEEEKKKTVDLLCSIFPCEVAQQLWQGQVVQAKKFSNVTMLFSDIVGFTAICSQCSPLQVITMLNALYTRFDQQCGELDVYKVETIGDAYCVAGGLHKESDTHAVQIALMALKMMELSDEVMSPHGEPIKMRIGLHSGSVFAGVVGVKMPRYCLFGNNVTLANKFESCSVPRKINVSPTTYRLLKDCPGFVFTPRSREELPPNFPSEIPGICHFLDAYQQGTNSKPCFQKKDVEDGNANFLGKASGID
T1 sequence (Q02153 1-619): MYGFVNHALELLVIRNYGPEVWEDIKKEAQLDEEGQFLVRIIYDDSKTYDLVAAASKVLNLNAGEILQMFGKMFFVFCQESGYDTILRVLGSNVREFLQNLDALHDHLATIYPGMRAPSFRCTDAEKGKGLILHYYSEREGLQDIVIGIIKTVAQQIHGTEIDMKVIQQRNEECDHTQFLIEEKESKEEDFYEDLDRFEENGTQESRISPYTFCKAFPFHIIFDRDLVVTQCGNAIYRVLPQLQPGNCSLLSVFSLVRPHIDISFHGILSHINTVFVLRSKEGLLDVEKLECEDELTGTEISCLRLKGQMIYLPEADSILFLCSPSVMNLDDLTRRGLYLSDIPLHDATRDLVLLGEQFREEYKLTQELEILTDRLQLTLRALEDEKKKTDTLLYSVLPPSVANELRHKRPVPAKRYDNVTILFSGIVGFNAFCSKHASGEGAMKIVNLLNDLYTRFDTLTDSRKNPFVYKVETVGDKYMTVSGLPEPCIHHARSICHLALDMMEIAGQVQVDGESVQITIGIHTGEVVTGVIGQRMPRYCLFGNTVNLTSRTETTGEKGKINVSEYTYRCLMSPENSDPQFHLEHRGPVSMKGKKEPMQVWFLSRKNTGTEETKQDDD
Method in brief: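 CHO-K1 cells stably expressing human sGC α1/β1, in EBSS buffer with 5 mM MgCl2, 10 mM HEPES, 0.05% BSA and 0.5 mM IBMX, incubated with compound (2.5% DMSO) ± 1 μM DETA-NO, 1 h, 37 °C. Intracellular cGMP read by HTRF; activity as % of reference activator maximum, IP from 4-parameter fit.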

SMILES | Emax (sGC α1/β1 heterodimer) [%] | EC50 (sGC α1/β1 heterodimer) [nM] | Cat. (maximum peak decrease of systolic blood pressure (SBP) in SHR) ([1]; single oral dose 3.0 mpk P.O.) | Cat. (maximum peak decrease of systolic blood pressure (SBP) in SHR) ([1]; single oral dose 1.0 mpk P.O.) | Cat. (maximum peak decrease of systolic blood pressure (SBP) in SHR) ([1]; single oral dose 0.3 mpk P.O.) | Cat. (maximum peak decrease of systolic blood pressure (SBP) in SHR) ([1]; single oral dose 2.0 mpk P.O.)
CC1(c2ccc(F)cn2)C(=O)Nc2nc(-c3cn4ccnc4c(CCC(F)(F)C(F)(F)F)n3)nc(O)c21 (single isomer, unassigned) [Example 18B, 5-(5-fluoropyridin-2-yl)-4-hydroxy-5-methyl-2-(8-(3,3,4,4,4-pentafluorobutyl)imidazo[1,2-a]pyrazin-6-yl)-5H-pyrrolo[2,3-d]pyrimidin-6(7H)-one] | 78 | 365 | A (Category A=SBP in SHRs<20 mmHg) | – | – | –
CC1(c2ccc(F)cc2)C(=O)Nc2nc(-c3cn4ccnc4c(CCC(F)(F)C(F)(F)F)n3)nc(O)c21 (centres unmarked) [Example 2A, 5-(4-Fluorophenyl)-4-hydroxy-5-methyl-2-(8-(3,3,4,4,4-pentafluorobutyl)imidazo[1,2-a]pyrazin-6-yl)-5H-pyrrolo[2,3-d]pyrimidin-6(7H)-one] | 102 | 433 | B (Category B=SBP in SHRs 20-40 mmHg) | – | – | –
O=C1Nc2nc(-c3cn4ccnc4c(CCC(F)(F)C(F)(F)F)n3)nc(O)c2C1(c1ccc(F)cc1)C1CC1 (centres unmarked) [Example 12B, 5-cyclopropyl-5-(4-fluorophenyl)-4-hydroxy-2-(8-(3,3,4,4,4-pentafluorobutyl)imidazo[1,2-a]pyrazin-6-yl)-5H-pyrrolo[2,3-d]pyrimidin-6(7H)-one] | 92 | 525 | A (Category A=SBP in SHRs<20 mmHg) | – | – | –
CC1(c2ccc(Cl)cn2)C(=O)Nc2nc(-c3cn4ccnc4c(CCC(F)(F)C(F)(F)F)n3)nc(O)c21 (centres unmarked) [Example 17A, 5-(5-chloropyridin-2-yl)-4-hydroxy-5-methyl-2-(8-(3,3,4,4,4-pentafluorobutyl)imidazo[1,2-a]pyrazin-6-yl)-5H-pyrrolo[2,3-d]pyrimidin-6(7H)-one] | 90 | 294 | – | A (Category A=SBP in SHRs<20 mmHg) | – | –
COc1nc(-c2cn3ccnc3c(CCC(F)(F)C(F)(F)F)n2)nc2c1C(C)(c1ccc(F)cc1)C(=O)N2 (centres unmarked) [Example 89A, 5-(4-Fluorophenyl)-4-methoxy-5-methyl-2-(8-(3,3,4,4,4-pentafluorobutyl)imidazo[1,2-a]pyrazin-6-yl)-5H-pyrrolo[2,3-d]pyrimidin-6(7H)-one] | 110 | 606 | – | – | – | –
CCCCc1nc(-c2ncc3c(n2)NC(=O)C3(C)c2ccc(F)cn2)cn2cc(C)nc12 (centres unmarked) [Example 91B, 2-(8-Butyl-2-methylimidazo[1,2-a]pyrazin-6-yl)-5-(5-fluoropyridin-2-yl)-5-methyl-5H-pyrrolo[2,3-d]pyrimidin-6(7H)-one] | 117 | 330 | – | – | – | –

The next molecules have a lower EC50 (sGC α1/β1 heterodimer) than those just listed; values first:

Emax (sGC α1/β1 heterodimer) [%] | EC50 (sGC α1/β1 heterodimer) [nM] | SMILES | Cat. (maximum peak decrease of systolic blood pressure (SBP) in SHR) ([1]; single oral dose 3.0 mpk P.O.) | Cat. (maximum peak decrease of systolic blood pressure (SBP) in SHR) ([1]; single oral dose 1.0 mpk P.O.) | Cat. (maximum peak decrease of systolic blood pressure (SBP) in SHR) ([1]; single oral dose 0.3 mpk P.O.) | Cat. (maximum peak decrease of systolic blood pressure (SBP) in SHR) ([1]; single oral dose 2.0 mpk P.O.)
83 | 282 | CCCOc1nc(-c2ncc3c(n2)NC(=O)C3(C)c2ccc(F)cc2)cn2ccnc12 (centres unmarked) [Example 92A, 5-(4-Fluorophenyl)-5-methyl-2-(8-propoxyimidazo[1,2-a]pyrazin-6-yl)-5H-pyrrolo[2,3-d]pyrimidin-6(7H)-one] | – | – | – | –
118 | 253 | CC1(c2ccc(F)cn2)C(=O)Nc2nc(-c3cn4ccnc4c(Cc4ccc(F)cc4)n3)nc(O)c21 (centres unmarked) [Example 6B, 2-(8-(4-fluorobenzyl)imidazo[1,2-a]pyrazin-6-yl)-5-(5-fluoropyridin-2-yl)-4-hydroxy-5-methyl-5H-pyrrolo[2,3-d]pyrimidin-6(7H)-one] | – | C (Category C=SBP in SHRs>40 mmHg) | – | –
121 | 228 | CC1(c2ccc(F)cc2)C(=O)Nc2nc(-c3cn4ccnc4c(CCC(F)(F)C(F)(F)F)n3)ncc21 (centres unmarked) [Example 1A, 5-(4-Fluorophenyl)-5-methyl-2-(8-(3,3,4,4,4-pentafluorobutyl)imidazo[1,2-a]pyrazin-6-yl)-5H-pyrrolo[2,3-d]pyrimidin-6(7H)-one] | – | B (Category B=SBP in SHRs 20-40 mmHg) | – | –
90 | 136 | CC1(c2ccc(Cl)cc2)C(=O)Nc2nc(-c3cn4ccnc4c(OCCC4CC4)n3)nc(O)c21 (centres unmarked) [Example 94A, 5-(4-Chlorophenyl)-2-(8-(2-cyclopropylethoxy)imidazo[1,2-a]pyrazin-6-yl)-4-hydroxy-5-methyl-5H-pyrrolo[2,3-d]pyrimidin-6(7H)-one] | – | – | – | –
83 | 125 | CC1(c2ccc(Cl)cc2)C(=O)Nc2nc(-c3cn4ccnc4c(CCC(F)(F)C(F)(F)F)n3)nc(O)c21 (centres unmarked) [Example 4A, 5-(4-chlorophenyl)-4-hydroxy-5-methyl-2-(8-(3,3,4,4,4-pentafluorobutyl)imidazo[1,2-a]pyrazin-6-yl)-5H-pyrrolo[2,3-d]pyrimidin-6(7H)-one] | B (Category B=SBP in SHRs 20-40 mmHg) | – | – | –
167 | 106 | CC1(C(=O)NC2CC2)C(=O)Nc2nc(-c3cn4ccnc4c(Cc4ccc(F)cc4)n3)ncc21 (single isomer, unassigned) [Example 67A, N-Cyclopropyl-2-(8-(4-fluorobenzyl)imidazo[1,2-a]pyrazin-6-yl)-5-methyl-6-oxo-6,7-dihydro-5H-pyrrolo[2,3-d]pyrimidine-5-carboxamide] | – | B (Category B=SBP in SHRs 20-40 mmHg) | – | –
120 | 74 | O=C1Nc2nc(-c3cn4ccnc4c(CCCC(F)(F)F)n3)ncc2C1(c1ccc(Cl)cn1)C1CC1 (centres unmarked) [Example 9A, 5-(5-chloropyridin-2-yl)-5-cyclopropyl-2-(8-(4,4,4-trifluorobutyl)imidazo[1,2-a]pyrazin-6-yl)-5H-pyrrolo[2,3-d]pyrimidin-6(7H)-one] | – | – | – | B (Category B=SBP in SHRs 20-40 mmHg)
118 | 34 | CC1(c2ccc(Cl)cc2)C(=O)Nc2nc(-c3cn4ccnc4c(CCC(F)(F)C(F)(F)F)n3)ncc21 (centres unmarked) [Example 3A, 5-(4-chlorophenyl)-5-methyl-2-(8-(3,3,4,4,4-pentafluorobutyl)imidazo[1,2-a]pyrazin-6-yl)-5H-pyrrolo[2,3-d]pyrimidin-6(7H)-one] | – | B (Category B=SBP in SHRs 20-40 mmHg) | – | –
117 | 30 | CC1(c2ccc(F)cn2)C(=O)Nc2nc(-c3cn4ccnc4c(Cc4ccc(F)cc4)n3)ncc21 (centres unmarked) [Example 5B, 2-(8-(4-fluorobenzyl)imidazo[1,2-a]pyrazin-6-yl)-5-(5-fluoropyridin-2-yl)-5-methyl-5H-pyrrolo[2,3-d]pyrimidin-6(7H)-one] | – | – | B (Category B=SBP in SHRs 20-40 mmHg) | –
